Data on eight compounds can be found in the supplement of paper PMC8967900.
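Further: ALL cell lines in 384-well plates, five doses spanning 10,000-fold, each plate scaled between vehicle and 100 µmol/L benzalkonium chloride controls, sDSS an adapted area-under-curve metric.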

The first experiment relates to RCH-ACV. The experiment can be described thus: selective drug sensitivity score (sDSS, relative to normal bone marrow) (sDSS (score)); higher = more potent and effective on the cell line relative to normal bone marrow cells. The settings on record: 72 h.
Regarding `C[C@@H](Oc1ccc2[nH]nc(/C=C/c3cnn(CCO)c3)c2c1)c1c(Cl)cncc1Cl` (top concentration 1000 nM), the “selective drug sensitivity score” value was 10.6.

In the case of `Cc1cc(C(C)Nc2ccccc2)c2nc(N3CCOCC3)cc(=O)n2c1` (stereo not given) [TGX-221] (top concentration 10000 nM), the “selective drug sensitivity score” value is 13.5.

In the case of `Cc1nc(-c2cn3c(n2)-c2ccc(-c4cnn(C(C)(C)C(N)=O)c4)cc2OCC3)n(C(C)C)n1` [Taselisib] (top concentration 1000 nM), the “selective drug sensitivity score” value was determined as 22.1.

Regarding `O=C(Nc1cccc(Nc2ncc(Br)c(NCCc3cnc[nH]3)n2)c1)N1CCCC1` [BX-912] (top concentration 10000 nM), the “selective drug sensitivity score” value is 13.3.

As for `NS(=O)(=O)OC[C@@H]1C[C@@H](n2ccc3c(N[C@H]4CCc5ccccc54)ncnc32)C[C@@H]1O` [Pevonedistat] (top concentration 10000 nM), the “selective drug sensitivity score” value amounted to 12.3.

Take `N#Cc1ccc(COC[C@H]2O[C@@H](n3c(NCc4ccc(Cl)c(Cl)c4)nc4c(N)ncnc43)[C@H](O)[C@@H]2O)cc1` (top concentration 10000 nM): the “selective drug sensitivity score” value worked out at 8.62.

Regarding `C=C1C[C@@H]2[C@H](CC[C@]3(C)C(=O)CC[C@@H]23)[C@@]2(C)C=CC(=O)C=C12` [Exemestane] (top concentration 10000 nM), the “selective drug sensitivity score” value was found to be 0.4.

`NCC(=O)Nc1ccc(-n2nc(C(F)(F)F)cc2-c2ccc3c(ccc4ccccc43)c2)cc1` (top concentration 25000 nM): the “selective drug sensitivity score” value came to 17.3.

In the next experiment the test system is P30-OHKUBO. The description is as above. The settings on record: 72 h.
Turning to `C[C@@H](Oc1ccc2[nH]nc(/C=C/c3cnn(CCO)c3)c2c1)c1c(Cl)cncc1Cl` (top concentration 1000 nM), the “selective drug sensitivity score” value was found to be 6.06.

For `Cc1cc(C(C)Nc2ccccc2)c2nc(N3CCOCC3)cc(=O)n2c1` (stereo not given) [TGX-221] (top concentration 10000 nM), the “selective drug sensitivity score” value was determined as 3.36.

Consider `Cc1nc(-c2cn3c(n2)-c2ccc(-c4cnn(C(C)(C)C(N)=O)c4)cc2OCC3)n(C(C)C)n1` [Taselisib] (top concentration 1000 nM), for which the “selective drug sensitivity score” value was 12.2.

Consider `O=C(Nc1cccc(Nc2ncc(Br)c(NCCc3cnc[nH]3)n2)c1)N1CCCC1` [BX-912] (top concentration 10000 nM), for which the “selective drug sensitivity score” value was 10.9.

With `NS(=O)(=O)OC[C@@H]1C[C@@H](n2ccc3c(N[C@H]4CCc5ccccc54)ncnc32)C[C@@H]1O` [Pevonedistat] (top concentration 10000 nM), the “selective drug sensitivity score” value was determined as 11.1.

`N#Cc1ccc(COC[C@H]2O[C@@H](n3c(NCc4ccc(Cl)c(Cl)c4)nc4c(N)ncnc43)[C@H](O)[C@@H]2O)cc1` (top concentration 10000 nM): the “selective drug sensitivity score” value was determined as 1.62.

Take `C=C1C[C@@H]2[C@H](CC[C@]3(C)C(=O)CC[C@@H]23)[C@@]2(C)C=CC(=O)C=C12` [Exemestane] (top concentration 10000 nM): the “selective drug sensitivity score” value is -0.4.

Take `NCC(=O)Nc1ccc(-n2nc(C(F)(F)F)cc2-c2ccc3c(ccc4ccccc43)c2)cc1` (top concentration 25000 nM): the “selective drug sensitivity score” value is 7.6.

The next experiment concerns ALL-SIL. The experiment is described as above. The settings on record: 72 h.
Turning to `C[C@@H](Oc1ccc2[nH]nc(/C=C/c3cnn(CCO)c3)c2c1)c1c(Cl)cncc1Cl` (top concentration 1000 nM), the “selective drug sensitivity score” value amounted to 14.3.

`Cc1cc(C(C)Nc2ccccc2)c2nc(N3CCOCC3)cc(=O)n2c1` (stereo not given) [TGX-221] (top concentration 10000 nM): the “selective drug sensitivity score” value is -1.64.

Turning to `Cc1nc(-c2cn3c(n2)-c2ccc(-c4cnn(C(C)(C)C(N)=O)c4)cc2OCC3)n(C(C)C)n1` [Taselisib] (top concentration 1000 nM), the “selective drug sensitivity score” value worked out at 1.2.

As to `O=C(Nc1cccc(Nc2ncc(Br)c(NCCc3cnc[nH]3)n2)c1)N1CCCC1` [BX-912] (top concentration 10000 nM), the “selective drug sensitivity score” value was 9.36.

As to `NS(=O)(=O)OC[C@@H]1C[C@@H](n2ccc3c(N[C@H]4CCc5ccccc54)ncnc32)C[C@@H]1O` [Pevonedistat] (top concentration 10000 nM), the “selective drug sensitivity score” value came to 13.1.

For `N#Cc1ccc(COC[C@H]2O[C@@H](n3c(NCc4ccc(Cl)c(Cl)c4)nc4c(N)ncnc43)[C@H](O)[C@@H]2O)cc1` (top concentration 10000 nM), the “selective drug sensitivity score” value was determined as 11.7.

Consider `C=C1C[C@@H]2[C@H](CC[C@]3(C)C(=O)CC[C@@H]23)[C@@]2(C)C=CC(=O)C=C12` [Exemestane] (top concentration 10000 nM), for which the “selective drug sensitivity score” value is -1.9.

For `NCC(=O)Nc1ccc(-n2nc(C(F)(F)F)cc2-c2ccc3c(ccc4ccccc43)c2)cc1` (top concentration 25000 nM), the “selective drug sensitivity score” value is 8.4.

In a further experiment the test system is MOLT-14. Described as above. The conditions noted are these: 72 h.
Consider `C[C@@H](Oc1ccc2[nH]nc(/C=C/c3cnn(CCO)c3)c2c1)c1c(Cl)cncc1Cl` (top concentration 1000 nM), for which the “selective drug sensitivity score” value was -0.94.

`Cc1cc(C(C)Nc2ccccc2)c2nc(N3CCOCC3)cc(=O)n2c1` (stereo not given) [TGX-221] (top concentration 10000 nM): the “selective drug sensitivity score” value is -1.14.

As for `Cc1nc(-c2cn3c(n2)-c2ccc(-c4cnn(C(C)(C)C(N)=O)c4)cc2OCC3)n(C(C)C)n1` [Taselisib] (top concentration 1000 nM), the “selective drug sensitivity score” value was -4.3.

As for `O=C(Nc1cccc(Nc2ncc(Br)c(NCCc3cnc[nH]3)n2)c1)N1CCCC1` [BX-912] (top concentration 10000 nM), the “selective drug sensitivity score” value was 9.36.

As for `NS(=O)(=O)OC[C@@H]1C[C@@H](n2ccc3c(N[C@H]4CCc5ccccc54)ncnc32)C[C@@H]1O` [Pevonedistat] (top concentration 10000 nM), the “selective drug sensitivity score” value was 13.2.

Turning to `N#Cc1ccc(COC[C@H]2O[C@@H](n3c(NCc4ccc(Cl)c(Cl)c4)nc4c(N)ncnc43)[C@H](O)[C@@H]2O)cc1` (top concentration 10000 nM), the “selective drug sensitivity score” value is 9.22.

Take `C=C1C[C@@H]2[C@H](CC[C@]3(C)C(=O)CC[C@@H]23)[C@@]2(C)C=CC(=O)C=C12` [Exemestane] (top concentration 10000 nM): the “selective drug sensitivity score” value amounted to 1.

On to `NCC(=O)Nc1ccc(-n2nc(C(F)(F)F)cc2-c2ccc3c(ccc4ccccc43)c2)cc1` (top concentration 25000 nM), for which the “selective drug sensitivity score” value stood at 11.2.

The next experiment has as its system KASUMI-9. Described as above. The conditions noted are these: 72 h.
Regarding `C[C@@H](Oc1ccc2[nH]nc(/C=C/c3cnn(CCO)c3)c2c1)c1c(Cl)cncc1Cl` (top concentration 1000 nM), the “selective drug sensitivity score” value was -1.54.

`Cc1cc(C(C)Nc2ccccc2)c2nc(N3CCOCC3)cc(=O)n2c1` (stereo not given) [TGX-221] (top concentration 10000 nM): the “selective drug sensitivity score” value amounted to 1.16.

For the compound `Cc1nc(-c2cn3c(n2)-c2ccc(-c4cnn(C(C)(C)C(N)=O)c4)cc2OCC3)n(C(C)C)n1` [Taselisib] (top concentration 1000 nM), the “selective drug sensitivity score” value turned out to be 6.3.

On to `O=C(Nc1cccc(Nc2ncc(Br)c(NCCc3cnc[nH]3)n2)c1)N1CCCC1` [BX-912] (top concentration 10000 nM), for which the “selective drug sensitivity score” value came to 10.5.

For the compound `NS(=O)(=O)OC[C@@H]1C[C@@H](n2ccc3c(N[C@H]4CCc5ccccc54)ncnc32)C[C@@H]1O` [Pevonedistat] (top concentration 10000 nM), the “selective drug sensitivity score” value amounted to 6.2.

For the compound `N#Cc1ccc(COC[C@H]2O[C@@H](n3c(NCc4ccc(Cl)c(Cl)c4)nc4c(N)ncnc43)[C@H](O)[C@@H]2O)cc1` (top concentration 10000 nM), the “selective drug sensitivity score” value is -0.58.

Turning to `C=C1C[C@@H]2[C@H](CC[C@]3(C)C(=O)CC[C@@H]23)[C@@]2(C)C=CC(=O)C=C12` [Exemestane] (top concentration 10000 nM), the “selective drug sensitivity score” value is -0.8.

Regarding `NCC(=O)Nc1ccc(-n2nc(C(F)(F)F)cc2-c2ccc3c(ccc4ccccc43)c2)cc1` (top concentration 25000 nM), the “selective drug sensitivity score” value came out at 8.1.
